{"source": "patent US10512667B2", "about": "“Compositions and methods for treating conditions related to adrenocortical activity and/or excessive steroid production” (The Regents of the University of Michigan, priority 2017, dated 2019)", "key": {"[1]": {"tested_on": "adrenal cortex", "details": "WHHL rabbits; cited from earlier work"}, "[2]": {"tested_on": "H295R cells", "assay": "Visualization of cholesterol levels by filipin III binding", "assay_type": "cell-based", "protocol": "The cells were seeded in 96-well ibiTreat μ-Plates and allowed to adhere for 48 h prior to the start of each experiment. Cholesterol was detected in fixed cells by incubating with 100 μg/ml filipin III at 37 C for 2 h. […] Images were captured using either a 4× or a 60× objective. Cholesterol esterification was visualized by culturing the cells with 1 μM NBD-cholesterol for 2 h following incubation with the indicated compounds. […] Images were captured using either a 20× or a 60× objective.\nThe medium was removed and immediately replaced with 100 μl of 4% paraformaldehyde and the cells were fixed at room temperature for 20 min. The cells were washed twice with 200 μl PBS. […] The fixed cells were incubated with filipin III at 37 C in the dark for 2 h."}, "[3]": {"tested_on": "H295R cells", "assay": "Caspase 3/7 activity (Apo-ONE)", "assay_type": "cell-based", "details": "for caspase 3/7 activity, compound alone: serum-containing medium", "protocol": "The samples were incubated for 18 h at room temperature in the dark. The fluorescence was measured using a SpectraMax M5 microplate reader with a 0.5 s acquisition time."}, "[4]": {"tested_on": "H295R cells", "assay": "Cholesterol crystallization and extracellular cholesterol associated with cells", "assay_type": "cell-based", "details": "compound in combination with ATR-101", "protocol": "To quantify cholesterol crystallization, experiments were conducted that measured the total extracellular cholesterol that was associated with the cells. After culturing cells with the indicated compounds, the culture medium was removed. Medium lacking cholesterol was added to the cells, and the extracellular cholesterol that was released into the wash medium was collected after 30 seconds. To establish if the cholesterol that was released from the cells was exported by ABCA1, the wash step was performed in parallel using media with and without 50 μM glibenclamide, which inhibits ABCA1 activity. The total amount of cell-associated cholesterol that was released into the wash medium was measured using a fluorometric enzyme-linked assay (Cayman Chemical). Cholesterol esters were hydrolyzed using cholesterol esterase. Cholesterol was oxidized by cholesterol oxidase, producing hydrogen peroxide. The hydrogen peroxide was reacted with 10-acetyl-3,7-dihydroxyphenoxazine (ADHP) in the presence of horseradish peroxidase to produce resorufin. Resorufin fluorescence was measured using 555 nm exitation and 590 nm emission wavelengths in a SpectraMax M5 microplate reader (Molecular Devices).\nThe medium was removed and replaced with 50 μl serum-free medium supplemented with 5 μg/mL apo-AI (without or with 50 μM glyburide to detect ABCA1 transporter-dependent efflux) for either 30 sec or 1 h at 37 C in 5% CO2 atmosphere. After the indicated time, the supernatant, was transferred to a new 96-well plate and a fluorometric-base cholesterol detection assay cocktail was added."}, "[5]": {"tested_on": "H295R cells", "assay": "Cell morphology by phase contrast microscopy", "assay_type": "cell-based", "details": "30 h", "protocol": "FIG. 4E: […] The cells were cultured with DMSO vehicle (upper images) or with 40 μM ATR-101 (lower images) alone (left images), or in combination with 1.5 mM MβCD (middle images), or in combination with 40 μM cholesterol (right images). Cell morphology was visualized by phase contrast microscopy using a 10× objective. The images are representative of 5 fields under each set of culture conditions. The scale bars denote 100 μm."}, "[6]": {"tested_on": "H295R cells", "assay": "Resazurin reducing potential", "assay_type": "cell-based", "details": "32 μM ATR-101 with 2 mM MβCD", "protocol": "FIG. 4F: […] The cells were cultured with DMSO vehicle or 32 μM ATR-101 alone, or together with 2 mM MβCD. Resazurin fluorescence intensity was measured using a microplate reader at the indicated times at 37 C. The background signal of wells without resazurin was subtracted. […] DMSO control, *P<0.05)."}, "[7]": {"tested_on": "H295R cells", "assay": "Cellular ATP level (CellTiter-Glo);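 also: ATP quantified by luminescence after lysing the cells in CellTiter-Glo reagent, with compound exposure at 37 °C under 5% CO2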", "details": "for ATP level, compound alone: serum-containing medium", "description": "The ATP levels of cells were measured by lysis in CellTiter-Glo reagent (Promega), and measurement of the luminescence.\nAfter 48 h, 20-80 μl of medium was removed from each well and replaced with 20 μl of each compound diluted to 6× of the final concentration in the culture medium to produce a final volume of 120 μl. The cells were incubated at 37 C in 5% CO2 atmosphere for a time ranging from 15 min to 24 h. The medium was removed and immediately replaced with 50 μl of CellTiter-Glo luminescence cell viability assay reagent (Promega). The cells were lysed by agitation at room temperature for 20 min in the dark. The luminescence was measured using a SpectraMax M5 microplate reader (Molecular Devices) with a 0.5 s acquisition time. The luminescence (RLU) values for control cells ranged from 5000 to 20000 RLU in all experiments, and were scaled by a factor of 0.001 to plot all graphs."}, "[8]": {"target": "T1, MDR1 (Homo sapiens, UniProt P08183)", "T1 construct": "measured the accumulation of doxorubicin in H295R cells; endogenous in cells; host or cells: H295R adrenocortical carcinoma cells", "details": "cited from earlier work"}, "[9]": {"details": "H295R cells, serum-free, 50 μM each glibenclamide, benzamil, zosuquidar, 10 μM PD129337, 4 mM MβCD"}, "[10]": {"details": "H295R cells cultured with the compound together with ATR-101, 4 h"}, "[11]": {"details": "H295R cells cultured with the compound together with ATR-101, 24 h"}}, "note": "Entries after “also recorded” stand apart in the source; their conditions may differ."}
{"compound": "Cc1ccc2oc(CN(Cc3ccccc3)C(=O)Nc3c(F)cc(F)cc3F)c(-c3ccc(Cl)cc3)c2c1", "note": "[FR145237]", "values": [{"measurement": "adrenalytic effect in LDL deficient animals", "setting": "[1]", "result": "resistant"}]}
{"compound": "methyl-β-cyclodextrin [MβCD]", "values": [{"measurement": "effect on cholesterol accumulation caused by ATR-101", "setting": "[2]; H295R cells cultured with the compound together with ATR-101, 4 h or 24 h", "result": "prevented cholesterol accumulation; also recorded: blocked the effects of ATR-101 on cholesterol accumulation; also recorded: did not have a higher level of filipin III binding to the plasma membrane"}, {"measurement": "cholesterol level (filipin III binding), compound alone", "setting": "[2]; H295R cells, serum-free medium containing apoA-I, 4 h", "result": "reduced the basal level of cholesterol"}, {"measurement": "effect on cholesterol accumulation caused by ATR-101", "setting": "[2]; H295R cells, serum-free medium, 100 μM ATR-101 with 4 mM MβCD, 4 h", "result": "suppressed the cholesterol accumulation"}, {"measurement": "cholesterol level with combinations of ABC transporter inhibitors", "setting": "[2]; [9]", "result": "reduced the cholesterol level"}, {"measurement": "effect on caspase 3/7 activation by ATR-101", "setting": "[3]; [10]", "result": "prevented ATP depletion and caspase activation; also recorded: suppressed"}, {"measurement": "effect on caspase 3/7 activation by ATR-101", "setting": "[3]; [11]", "result": "prevented ATP depletion and caspase activation"}, {"measurement": "caspase 3/7 activity, compound alone", "setting": "[3]; H295R cells, 4 h", "result": "little effect"}, {"measurement": "caspase 3/7 activity, compound alone", "setting": "[3]; H295R cells, 24 h", "result": "little effect"}, {"measurement": "effect on caspase activation by ATR-101", "setting": "[3]; H295R cells, serum-free medium, 100 μM ATR-101 with 4 mM MβCD", "result": "suppressed ATP depletion and caspase activation"}, {"measurement": "caspase 3/7 activity with combinations of ABC transporter inhibitors", "setting": "[3]; [9]", "result": "suppressed"}, {"measurement": "effect on cholesterol crystallization in cells cultured with ATR-101", "setting": "[4]", "result": "did not produce crystals; also recorded: blocked"}, {"measurement": "effect on the changes in cell morphology caused by ATR-101", "setting": "[5]; 40 μM ATR-101 with 1.5 mM MβCD or 40 μM cholesterol", "result": "remained flat and adherent for at least 30 h; also recorded: prevented"}, {"measurement": "cell morphology, compound alone", "setting": "[5]; phase contrast", "result": "little effect"}, {"measurement": "effect on the increase in resazurin fluorescence caused by ATR-101", "setting": "[6]", "result": "not inhibited"}, {"measurement": "effect on ATP depletion by ATR-101", "setting": "[7]; [10]", "result": "prevented ATP depletion; also recorded: suppressed the depletion of ATP"}, {"measurement": "effect on ATP depletion by ATR-101", "setting": "[7]; [11]", "result": "prevented ATP depletion"}, {"measurement": "effect on ATP depletion by ATR-101 in combination with ABC transporter inhibitors, substrates or U18666A", "setting": "[7]; H295R cells, 2 mM MβCD", "result": "suppressed ATP depletion"}, {"measurement": "ATP level, compound alone", "setting": "[7]; H295R cells, 4 h", "result": "little effect"}, {"measurement": "ATP level, compound alone", "setting": "[7]; H295R cells, 24 h", "result": "little effect"}, {"measurement": "effect on ATP depletion by ATR-101", "setting": "[7]; H295R cells, serum-free medium containing apoA-I, together with ATR-101", "result": "suppressed ATP depletion"}]}
{"compound": "O[C@@H](COc1cccc2ncccc12)CN1CCN([C@@H]2c3ccccc3[C@@H]3[C@H](c4ccccc42)C3(F)F)CC1", "note": "[zosuquidar]", "values": [{"measurement": "MDR1 inhibition", "setting": "[8]", "result": "selectively inhibits MDR1"}]}
